For this assay, the target named is T1, BRM (Homo sapiens, UniProt P51531).
T1 construct: In-Cell Western Screen of BRM Degradation in SW1573 Cells; endogenous in cells; host or cells: SW1573
The experiment in a line: In-cell Western screen of BRM degradation in SW1573 cells (Dmax and DC50). The assay is classed as cell-based. The note with it: BRM degradation, SW1573 cells; for DC50: read-out: DC50; for Dmax: tested at the top concentration of between 0.3 and 10 μM, read-out: Dmax (%) (% degraded). In outline:
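Overnight compound treatment (18-20 h, final DMSO 0.1%) of SW1573 cells in DMEM with 10% FBS precedes fixation and in-cell Western staining with 800/680 nm dye-labelled secondaries. Plate images give DC50 and maximal degradation.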

T1 sequence (P51531 whole entry): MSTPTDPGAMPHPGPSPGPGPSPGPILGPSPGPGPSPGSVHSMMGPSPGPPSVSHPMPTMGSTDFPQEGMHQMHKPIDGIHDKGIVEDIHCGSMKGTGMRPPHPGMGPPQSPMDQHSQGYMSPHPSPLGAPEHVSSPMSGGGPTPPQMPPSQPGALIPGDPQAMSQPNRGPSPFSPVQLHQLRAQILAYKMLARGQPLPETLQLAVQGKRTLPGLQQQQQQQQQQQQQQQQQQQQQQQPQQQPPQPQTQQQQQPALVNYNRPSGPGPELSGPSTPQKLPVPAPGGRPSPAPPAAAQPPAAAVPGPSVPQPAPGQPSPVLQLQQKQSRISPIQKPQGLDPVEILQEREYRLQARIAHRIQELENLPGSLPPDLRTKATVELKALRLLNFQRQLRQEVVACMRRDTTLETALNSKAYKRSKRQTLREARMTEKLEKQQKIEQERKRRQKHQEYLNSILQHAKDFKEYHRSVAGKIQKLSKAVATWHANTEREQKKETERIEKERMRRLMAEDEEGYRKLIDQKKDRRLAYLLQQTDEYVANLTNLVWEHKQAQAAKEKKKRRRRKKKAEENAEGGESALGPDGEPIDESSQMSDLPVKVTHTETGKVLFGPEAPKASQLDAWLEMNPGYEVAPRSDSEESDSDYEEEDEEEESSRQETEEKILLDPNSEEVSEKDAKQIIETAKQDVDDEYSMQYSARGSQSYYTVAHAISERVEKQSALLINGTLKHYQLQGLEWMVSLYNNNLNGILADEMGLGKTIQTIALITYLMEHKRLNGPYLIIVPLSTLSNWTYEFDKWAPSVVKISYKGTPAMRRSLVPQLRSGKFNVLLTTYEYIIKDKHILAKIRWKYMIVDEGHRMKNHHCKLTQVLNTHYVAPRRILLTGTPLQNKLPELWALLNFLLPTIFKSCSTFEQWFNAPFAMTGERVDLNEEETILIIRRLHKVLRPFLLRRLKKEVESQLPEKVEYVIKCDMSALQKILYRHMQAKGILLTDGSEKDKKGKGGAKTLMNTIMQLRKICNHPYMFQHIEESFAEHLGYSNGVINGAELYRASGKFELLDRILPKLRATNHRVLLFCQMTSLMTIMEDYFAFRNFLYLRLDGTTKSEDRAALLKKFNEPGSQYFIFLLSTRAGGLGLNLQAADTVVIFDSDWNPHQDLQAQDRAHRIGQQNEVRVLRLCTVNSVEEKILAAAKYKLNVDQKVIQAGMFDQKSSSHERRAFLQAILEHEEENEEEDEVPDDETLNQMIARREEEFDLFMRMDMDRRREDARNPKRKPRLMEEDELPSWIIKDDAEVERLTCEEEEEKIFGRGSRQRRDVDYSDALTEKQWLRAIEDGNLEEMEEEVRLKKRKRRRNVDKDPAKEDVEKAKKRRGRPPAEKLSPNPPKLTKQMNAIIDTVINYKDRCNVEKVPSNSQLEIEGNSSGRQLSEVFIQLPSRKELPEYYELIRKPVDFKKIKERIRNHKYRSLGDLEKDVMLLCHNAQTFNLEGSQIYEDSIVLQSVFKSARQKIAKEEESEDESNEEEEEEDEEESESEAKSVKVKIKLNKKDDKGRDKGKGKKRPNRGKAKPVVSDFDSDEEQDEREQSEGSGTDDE

As usually defined, the DC50 is the concentration giving 50% degradation. A word on the Dmax: it is the largest share of the target that was removed. As to `CC(C)C(C(=O)N1C[C@H](O)C[C@H]1C(=O)N[C@@H](C)c1ccc(-c2scnc2CO)cc1)c1cc(OCCN2CCN(CCOc3cc(N4C5CCC4CN(c4cc(-c6ccccc6O)nnc4N)C5)ccn3)CC2)no1` (stereo partly drawn) [compound 168, (2S,4R)-1-(2-(3-(2-(4-(2-((4-(3-(3-amino-6-(2-hydroxyphenyl)pyridazin-4-yl)-3,8-diazabicyclo[3.2.1]octan-8-yl)pyridin-2-yl)oxy)ethyl)piperazin-1-yl)ethoxy)isoxazol-5-yl)-3-methylbutanoyl)-4-hydroxy-N-((S)-1-(4-(4-(hydroxymethyl)thiazol-5-yl)phenyl)ethyl)pyrrolidine-2-carboxamide], the DC50 was less than 2.5 nM and the Dmax was greater than 75%.

As to `COCc1ncsc1-c1ccc([C@H](C)NC(=O)[C@@H]2C[C@@H](O)CN2C(=O)C(c2cc(OCCN3CCN(CCOc4cc(N5C6CCC5CN(c5cc(-c7ccccc7O)nnc5N)C6)ccn4)CC3)no2)C(C)C)cc1` (stereo partly drawn) [compound 169, (2S,4R)-1-(2-(3-(2-(4-(2-((4-(3-(3-amino-6-(2-hydroxyphenyl)pyridazin-4-yl)-3,8-diazabicyclo[3.2.1]octan-8-yl)pyridin-2-yl)oxy)ethyl)piperazin-1-yl)ethoxy)isoxazol-5-yl)-3-methylbutanoyl)-4-hydroxy-N-((S)-1-(4-(4-(methoxymethyl)thiazol-5-yl)phenyl)ethyl)pyrrolidine-2-carboxamide], the DC50 is less than 2.5 nM and the Dmax is greater than 75%. In the same order, the values of `Cc1ncsc1-c1ccc([C@H](C)NC(=O)[C@@H]2C[C@@H](O)CN2C(=O)[C@H](c2cc(CCCN3CCN(CCOc4cc(N5C6CCC5CN(c5cc(-c7ccccc7O)nnc5N)C6)ccn4)CC3)no2)C(C)C)cc1` [compound 170, (2S,4R)-1-((2S)-2-(3-(3-(4-(2-((4-(3-(3-amino-6-(2-hydroxyphenyl)pyridazin-4-yl)-3,8-diazabicyclo[3.2.1]octan-8-yl)pyridin-2-yl)oxy)ethyl)piperazin-1-yl)propyl)isoxazol-5-yl)-3-methylbutanoyl)-4-hydroxy-N-((S)-1-(4-(4-methylthiazol-5-yl)phenyl)ethyl)pyrrolidine-2-carboxamide] are 2.5 to 10 nM and greater than 75%. For `Cc1ncsc1-c1ccc([C@@H](NC(=O)[C@@H]2C[C@@H](O)CN2C(=O)[C@H](c2cc(OCCN3CCN(CCOc4cc(N5C6CCC5CN(c5cc(-c7ccccc7O)nnc5N)C6)ccn4)CC3)no2)C(C)C)C(=O)N(C)C)cc1` [compound 171, (2S,4R)-1-((2S)-2-(3-(2-(4-(2-((4-(3-(3-amino-6-(2-hydroxyphenyl)pyridazin-4-yl)-3,8-diazabicyclo[3.2.1]octan-8-yl)pyridin-2-yl)oxy)ethyl)piperazin-1-yl)ethoxy)isoxazol-5-yl)-3-methylbutanoyl)-N-((R)-2-(dimethylamino)-1-(4-(4-methylthiazol-5-yl)phenyl)-2-oxoethyl)-4-hydroxypyrrolidine-2-carboxamide], the DC50 was greater than 30 nM and the Dmax lay in the range of 50 to 75%. In the same order, the values of `CC(C)C(C(=O)N1C[C@H](O)C[C@H]1C(=O)N[C@@H](C)c1ccc(-c2scnc2C#CCN(C)C)cc1)c1cc(OCCN2CCN(CCOc3cc(N4C5CCC4CN(c4cc(-c6ccccc6O)nnc4N)C5)ccn3)CC2)no1` (stereo partly drawn) [compound 172, (2S,4R)-1-(2-(3-(2-(4-(2-((4-(3-(3-amino-6-(2-hydroxyphenyl)pyridazin-4-yl)-3,8-diazabicyclo[3.2.1]octan-8-yl)pyridin-2-yl)oxy)ethyl)piperazin-1-yl)ethoxy)isoxazol-5-yl)-3-methylbutanoyl)-N-((S)-1-(4-(4-(3-(dimethylamino)prop-1-yn-1-yl)thiazol-5-yl)phenyl)ethyl)-4-hydroxypyrrolidine-2-carboxamide] are less than 2.5 nM and greater than 75%. In the same order, the values of `Cc1ncsc1-c1ccc([C@@H](NC(=O)[C@@H]2C[C@@H](O)CN2C(=O)[C@H](c2cc(OCCN3CCN(CCOc4cc(N5C6CCC5CN(c5cc(-c7ccccc7O)nnc5N)C6)ccn4)CC3)no2)C(C)C)C(F)F)cc1` [compound 173, (2S,4R)-1-((2S)-2-(3-(2-(4-(2-((4-(3-(3-amino-6-(2-hydroxyphenyl)pyridazin-4-yl)-3,8-diazabicyclo[3.2.1]octan-8-yl)pyridin-2-yl)oxy)ethyl)piperazin-1-yl)ethoxy)isoxazol-5-yl)-3-methylbutanoyl)-N-((R)-2,2-difluoro-1-(4-(4-methylthiazol-5-yl)phenyl)ethyl)-4-hydroxypyrrolidine-2-carboxamide] are greater than 30 nM and greater than 75%.

As to `CC(=O)NCc1ncsc1-c1ccc([C@H](C)NC(=O)[C@@H]2C[C@@H](O)CN2C(=O)C(c2cc(OCCN3CCN(CCOc4cc(N5C6CCC5CN(c5cc(-c7ccccc7O)nnc5N)C6)ccn4)CC3)no2)C(C)C)cc1` (stereo partly drawn) [compound 174, (2S,4R)-N-((S)-1-(4-(4-(acetamidomethyl)thiazol-5-yl)phenyl)ethyl)-1-(2-(3-(2-(4-(2-((4-(3-(3-amino-6-(2-hydroxyphenyl)pyridazin-4-yl)-3,8-diazabicyclo[3.2.1]octan-8-yl)pyridin-2-yl)oxy)ethyl)piperazin-1-yl)ethoxy)isoxazol-5-yl)-3-methylbutanoyl)-4-hydroxypyrrolidine-2-carboxamide], the half-maximal degradation concentration (DC50) is 10 to 30 nM and the Dmax was greater than 75%. In the same order, the values of `CC(=O)NCC#Cc1ncsc1-c1ccc([C@H](C)NC(=O)[C@@H]2C[C@@H](O)CN2C(=O)C(c2cc(OCCN3CCN(CCOc4cc(N5C6CCC5CN(c5cc(-c7ccccc7O)nnc5N)C6)ccn4)CC3)no2)C(C)C)cc1` (stereo partly drawn) [compound 175, (2S,4R)-N-((S)-1-(4-(4-(3-acetamidoprop-1-yn-1-yl)thiazol-5-yl)phenyl)ethyl)-1-(2-(3-(2-(4-(2-((4-(3-(3-amino-6-(2-hydroxyphenyl)pyridazin-4-yl)-3,8-diazabicyclo[3.2.1]octan-8-yl)pyridin-2-yl)oxy)ethyl)piperazin-1-yl)ethoxy)isoxazol-5-yl)-3-methylbutanoyl)-4-hydroxypyrrolidine-2-carboxamide] are 2.5 to 10 nM and greater than 75%. Regarding `Cc1nccn1-c1ccc([C@H](C)NC(=O)[C@@H]2C[C@@H](O)CN2C(=O)[C@H](c2cc(OCCN3CCC(O[C@H]4C[C@H](Oc5cc(N6C7CCC6CN(c6cc(-c8ccccc8O)nnc6N)C7)ccn5)C4)CC3)no2)C(C)C)cc1` [compound 176, (2S,4R)-1-((2S)-2-(3-(2-(4-((1r,3S)-3-((4-(3-(3-amino-6-(2-hydroxyphenyl)pyridazin-4-yl)-3,8-diazabicyclo[3.2.1]octan-8-yl)pyridin-2-yl)oxy)cyclobutoxy)piperidin-1-yl)ethoxy)isoxazol-5-yl)-3-methylbutanoyl)-4-hydroxy-N-((S)-1-(4-(2-methyl-1H-imidazol-1-yl)phenyl)ethyl)pyrrolidine-2-carboxamide], the DC50 was greater than 30 nM and the Dmax was less than 50%.

Take `Cc1nccn1-c1ccc([C@H](C)NC(=O)[C@@H]2C[C@@H](O)CN2C(=O)[C@@H](c2cc(OCCN3CCC(O[C@H]4C[C@H](Oc5cc(N6C7CCC6CN(c6cc(-c8ccccc8O)nnc6N)C7)ccn5)C4)CC3)no2)C(C)C)cc1` [compound 178, (2S,4R)-1-((2R)-2-(3-(2-(4-((1r,3R)-3-((4-(3-(3-amino-6-(2-hydroxyphenyl)pyridazin-4-yl)-3,8-diazabicyclo[3.2.1]octan-8-yl)pyridin-2-yl)oxy)cyclobutoxy)piperidin-1-yl)ethoxy)isoxazol-5-yl)-3-methylbutanoyl)-4-hydroxy-N-((S)-1-(4-(2-methyl-1H-imidazol-1-yl)phenyl)ethyl)pyrrolidine-2-carboxamide]: the DC50 was less than 2.5 nM and the Dmax is greater than 75%.

For the compound `Cc1ncsc1-c1ccc([C@H](C)NC(=O)[C@@H]2C[C@@H](O)CN2C(=O)[C@H](c2cc(OCCN3CCC(O[C@H]4C[C@H](Oc5cc(N6C7CCC6CN(c6cc(-c8ccccc8O)nnc6N)C7)ccn5)C4)CC3)no2)C(C)C)cn1` [compound 179, (2S,4R)-1-((2S)-2-(3-(2-(4-((1r,3S)-3-((4-(3-(3-amino-6-(2-hydroxyphenyl)pyridazin-4-yl)-3,8-diazabicyclo[3.2.1]octan-8-yl)pyridin-2-yl)oxy)cyclobutoxy)piperidin-1-yl)ethoxy)isoxazol-5-yl)-3-methylbutanoyl)-4-hydroxy-N-((S)-1-(6-(4-methylthiazol-5-yl)pyridin-3-yl)ethyl)pyrrolidine-2-carboxamide], the DC50 is greater than 30 nM.

Regarding `Cc1ncsc1-c1ccc([C@H](C)NC(=O)[C@@H]2C[C@@H](O)CN2C(=O)[C@@H](c2cc(OCCN3CCC(O[C@H]4C[C@H](Oc5cc(N6C7CCC6CN(c6cc(-c8ccccc8O)nnc6N)C7)ccn5)C4)CC3)no2)C(C)C)cn1` [compound 180, (2S,4R)-1-((2R)-2-(3-(2-(4-((1r,3R)-3-((4-(3-(3-amino-6-(2-hydroxyphenyl)pyridazin-4-yl)-3,8-diazabicyclo[3.2.1]octan-8-yl)pyridin-2-yl)oxy)cyclobutoxy)piperidin-1-yl)ethoxy)isoxazol-5-yl)-3-methylbutanoyl)-4-hydroxy-N-((S)-1-(6-(4-methylthiazol-5-yl)pyridin-3-yl)ethyl)pyrrolidine-2-carboxamide], the half-maximal degradation concentration (DC50) is less than 2.5 nM and the greatest degradation seen (Dmax) is greater than 75%. Regarding `Cc1ncsc1-c1ccc([C@H](C)NC(=O)[C@@H]2C[C@@H](O)CN2C(=O)[C@H](c2cc(OCCOCCOCCOCCn3cc(-c4cc(-c5ccccc5O)nnc4N)cn3)no2)C(C)C)cc1` [compound 181, (2S,4R)-1-((S)-2-(3-(2-(2-(2-(2-(4-(3-amino-6-(2-hydroxyphenyl)pyridazin-4-yl)-1H-pyrazol-1-yl)ethoxy)ethoxy)ethoxy)ethoxy)isoxazol-5-yl)-3-methylbutanoyl)-4-hydroxy-N-((S)-1-(4-(4-methylthiazol-5-yl)phenyl)ethyl)pyrrolidine-2-carboxamide], the half-maximal degradation concentration (DC50) was greater than 30 nM.

The record behind these values is patent publication US12539292B2, “BRM targeting compounds and associated methods of use” (Arvinas Operations, Inc., priority 2018, dated 2026).
